Data from ChEMBL document CHEMBL6114971, “Design, synthesis and biological evaluation of benzo[b]thiophene analogues as novel ferroptosis inhibitor that inhibit fibrosarcoma cell proliferation” (Bioorg Med Chem, 2025).
Active and inactive are the calls of the source. The rule behind the calls is not given here.

Legend:
HT-1080 [1] = test: Antiproliferative activity against human HT-1080 cells measured after 72 hrs by MTT assay; assay type: functional, cell-based; details: HT-1080, 72 h
4T1 = test: Antiproliferative activity against mouse 4T1 cells measured after 72 hrs by MTT assay; assay type: functional, cell-based; details: 4T1, 72 h
MGC-803 = test: Antiproliferative activity against human MGC-803 cells measured after 72 hrs by MTT assay; assay type: functional, cell-based; details: MGC-803, 72 h
A549 = test: Antiproliferative activity against human A549 cells measured after 72 hrs by MTT assay; assay type: functional, cell-based; details: A549, 72 h
[2] = Cytotoxicity against HUVEC measured after 72 hrs by MTT assay; assay type: toxicity, cell-based; details: human
[3] = Selectivity index, ratio of IC50 for human GES1 cells to IC50 for human HT-1080; assay type: toxicity; details: GES1 cells versus HT-1080 cells, read-out: Ratio IC50
[4] = Selectivity index, ratio of IC50 for HUVEC to IC50 for human HT-1080; assay type: toxicity; details: HUVEC versus HT-1080 cells, read-out: Ratio IC50
[5] = Cytotoxicity against human GES1 cells measured after 72 hrs by MTT assay; assay type: toxicity, cell-based
HT-1080 [6] = test: Antiproliferative activity against human HT-1080 cells measured after 72 hrs in presence of ferroptosis inhibitor Fer-1 by MTT assay; assay type: functional, cell-based; details: HT-1080, 72 h
[7] = Selectivity ratio of IC50 for antiproliferative activity against human HT-1080 cells in presence of ferroptosis inhibitor Fer-1 to IC50 for antiproliferative activity against human HT-1080 cells; assay type: functional
[8] = molecular target: T1, Phospholipid hydroperoxide glutathione peroxidase GPX4 (Homo sapiens) (UniProt P36969); test: Inhibition of GPX4 activity in human HT-1080 cells assessed as down regulation of GPX4 level at 2 uM measured after 24 hrs by Western blotting analysis; assay type: cell-based
T1 sequence (whole entry): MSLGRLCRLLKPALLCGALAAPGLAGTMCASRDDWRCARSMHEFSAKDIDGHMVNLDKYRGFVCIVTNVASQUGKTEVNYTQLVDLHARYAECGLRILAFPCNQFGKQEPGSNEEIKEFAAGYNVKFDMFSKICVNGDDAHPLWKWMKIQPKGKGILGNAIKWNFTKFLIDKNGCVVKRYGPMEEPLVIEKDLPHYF

HT-1080 [9] = test: Reduction in GPX4 mRNA level in human HT-1080 cells at 2 uM measured after 24 hrs by qRT-PCR analysis; assay type: functional, cell-based
HT-1080 [10] = test: Induction of ROS generation in human HT-1080 cells assessed as intracellular ROS level at 2 uM measured after 24 hrs by DCFH-DA probe based flow cytometry (reference value: 33%); assay type: functional

Row | SMILES | IC50 (HT-1080 [1]) | IC50 (4T1) | IC50 (MGC-803) | IC50 (A549) | IC50 (HT-1080 [6]) | IC50 at 72 h [2] | selectivity ratio [3] | selectivity ratio [4] | IC50 at 72 h [5] | Ratio IC50 [7] | inhibition [8] | Activity (HT-1080 [9]) | Activity (HT-1080 [10])
1 | O=C(CCl)N(Cc1cc2ccccc2[nH]1)c1ccc(F)cc1 | 9.26 µM | 12.4 µM | 7.32 µM | > 20 µM | – | – | – | – | – | – | – | – | –
2 | COc1ccc(N(Cc2csc3ccccc23)C(=O)c2noc(C)c2[N+](=O)[O-])cc1OC | 5.25 µM | 3.48 µM | > 20 µM | > 20 µM | 15.6 µM | 31.8 µM | 16.6 | 6.06 | 87.3 µM | 2.98 | Active; Significant Down Regulation Observed | – | –
3 | COc1ccc(N(Cc2c[nH]c3ccccc23)C(=O)CCl)cc1 | 12.4 µM | 15.8 µM | 11.7 µM | > 20 µM | – | – | – | – | – | – | – | – | –
4 | COc1cc(N(Cc2ccoc2)C(=O)c2noc(C)c2[N+](=O)[O-])cc(OC)c1OC | > 20 µM | > 20 µM | > 20 µM | > 20 µM | – | – | – | – | – | – | – | – | –
5 | O=C(CCl)N(Cc1cc2ccccc2[nH]1)c1ccccc1 | 15.3 µM | > 20 µM | 13.8 µM | > 20 µM | – | – | – | – | – | – | – | – | –
6 | COc1cc(N(Cc2ccsc2)C(=O)c2noc(C)c2[N+](=O)[O-])cc(OC)c1OC | > 20 µM | 14.4 µM | > 20 µM | > 20 µM | – | – | – | – | – | – | – | – | –
7 | COc1ccc(N(Cc2cc3ccccc3[nH]2)C(=O)CCl)cc1 | 11.8 µM | 18.8 µM | > 20 µM | > 20 µM | – | – | – | – | – | – | – | – | –
8 | O=C(CCl)N(Cc1csc2ccccc12)c1ccccc1 | 11.2 µM | > 20 µM | 10.3 µM | > 20 µM | – | – | – | – | – | – | – | – | –
9 | COc1cc(N(C)Cc2csc3ccccc23)cc(OC)c1OC | – | – | – | – | – | – | – | – | – | – | – | inactive | –
10 | O=C(CCl)N(Cc1ccccc1)Cc1csc2ccccc12 | > 20 µM | 8.52 µM | > 20 µM | > 20 µM | – | – | – | – | – | – | – | – | –
11 | O=C(CCl)N(Cc1csc2ccccc12)c1cccc(C(F)(F)F)c1 | 11.1 µM | > 20 µM | 7.95 µM | 19.3 µM | – | – | – | – | – | – | – | – | –
12 | O=C(CCl)N(Cc1c[nH]c2ccccc12)c1ccc(F)cc1 | 7.21 µM | > 20 µM | 9.09 µM | 16 µM | – | – | – | – | – | – | – | – | –
13 | O=C(CCl)N(Cc1c[nH]c2ccccc12)c1ccccc1 | 7.86 µM | > 20 µM | 13.2 µM | > 20 µM | – | – | – | – | – | – | – | – | –
14 | CCOc1ccccc1-n1c(C(C)N2CCN(C(=O)COc3ccc(Cl)cc3)CC2)nc2ccccc2c1=O (configuration not stated) [ERASTIN] | 3.54 µM | 12.7 µM | > 20 µM | > 20 µM | – | – | – | – | – | – | – | – | –
15 | Cc1onc(C(=O)N(Cc2csc3ccccc23)c2ccc(F)cc2)c1[N+](=O)[O-] | > 20 µM | 10.2 µM | > 20 µM | > 20 µM | – | – | – | – | – | – | – | – | –
16 | CCCCN(Cc1cc2ccccc2s1)C(=O)CCl | 3.73 µM | 5.31 µM | > 20 µM | > 20 µM | 6 µM | 8.58 µM | 30.9 | 2.15 | 123 µM | 1.5 | Active; Significant Down Regulation Observed | – | –
17 | O=C(CCl)N(Cc1ccoc1)c1ccccc1 | 14.2 µM | 14.1 µM | > 20 µM | > 20 µM | – | – | – | – | – | – | – | – | –
18 | Cc1onc(C(=O)N(Cc2csc3ccccc23)c2ccccc2)c1[N+](=O)[O-] | > 20 µM | > 20 µM | > 20 µM | > 20 µM | – | – | – | – | – | – | – | – | –
19 | O=C(CCl)N(Cc1ccsc1)c1ccccc1 | 4.73 µM | 7.34 µM | 19.8 µM | > 20 µM | – | – | – | – | – | – | – | – | –
20 | COc1ccc(N(Cc2csc3ccccc23)C(=O)CCl)cc1 | 14 µM | > 20 µM | 16.9 µM | > 20 µM | – | – | – | – | – | – | – | – | –
21 | O=C(CCl)N(Cc1csc2ccccc12)c1ccc(F)cc1 | 12.3 µM | > 20 µM | 13.4 µM | > 20 µM | – | – | – | – | – | – | – | – | –
22 | O=C(CCl)N(Cc1ccsc1)c1ccc(F)cc1 | 5.21 µM | > 20 µM | 15.1 µM | > 20 µM | – | – | – | – | – | – | – | – | –
23 | COC(=O)c1ccc([C@H]2c3[nH]c4ccccc4c3C[C@H](C(=O)OC)N2C(=O)CCl)cc1 | – | 18.4 µM | 12.2 µM | > 20 µM | 2.28 µM | 32.1 µM | 51.5 | 26.6 | 62.3 µM | 1.88 | Active | Active | 87.6%
24 | O=C(CCl)N(Cc1ccoc1)c1ccc(F)cc1 | 6.06 µM | 12.1 µM | 16.7 µM | > 20 µM | – | – | – | – | – | – | – | – | –

Further lines, with some results ahead:

Row | IC50 (HT-1080 [1]) | IC50 (4T1) | IC50 (MGC-803) | IC50 (A549) | IC50 (HT-1080 [6]) | SMILES | IC50 at 72 h [2] | selectivity ratio [3] | selectivity ratio [4] | IC50 at 72 h [5] | Ratio IC50 [7] | inhibition [8] | Activity (HT-1080 [9]) | Activity (HT-1080 [10])
25 | > 20 µM | > 20 µM | 10.1 µM | 18.3 µM | – | COc1ccc(N(Cc2cc3ccccc3s2)C(=O)CCl)cc1 | – | – | – | – | – | inactive | – | –
26 | 4.22 µM | > 20 µM | 2.42 µM | 15.2 µM | – | COc1ccc(N(Cc2csc3ccccc23)C(=O)CCl)cc1OC | – | – | – | – | – | – | – | –
27 | 3.99 µM | 7.77 µM | > 20 µM | > 20 µM | – | COc1ccc(N(Cc2csc3ccccc23)C(=O)CCl)cc1Cl | – | – | – | – | – | – | – | –
28 | > 20 µM | 10.2 µM | > 20 µM | > 20 µM | – | COc1cc(N(Cc2csc3ccccc23)C(=O)c2noc(C)c2[N+](=O)[O-])cc(OC)c1OC | – | – | – | – | – | – | – | –
29 | 15 µM | > 20 µM | 7.19 µM | 16.7 µM | – | COc1ccc(N(Cc2c[nH]c3ccccc23)C(=O)CCl)cc1OC | – | – | – | – | – | – | – | –
30 | 10.4 µM | > 20 µM | 7.09 µM | > 20 µM | – | O=C(CCl)N(Cc1cc2ccccc2s1)c1ccc(F)cc1 | – | – | – | – | – | – | – | –
31 | > 20 µM | 12.9 µM | > 20 µM | 18.9 µM | – | COc1cc(N(Cc2ccc3ccccc3n2)C(=O)c2noc(C)c2[N+](=O)[O-])cc(OC)c1OC | – | – | – | – | – | – | – | –
32 | 13.6 µM | 17.8 µM | 12 µM | > 20 µM | – | O=C(CCl)N(Cc1cc2ccccc2s1)c1cccc(C(F)(F)F)c1 | – | – | – | – | – | – | – | –
33 | 3.59 µM | > 20 µM | 2.08 µM | > 20 µM | 4.13 µM | COc1cc(N(Cc2cc3ccccc3s2)C(=O)CCl)cc(OC)c1OC | 10.5 µM | 18.4 | 2.8 | 68.8 µM | 1.15 | Active; Significant Down Regulation Observed | – | –
34 | 4.21 µM | 5.97 µM | > 20 µM | > 20 µM | – | COc1cc(N(Cc2ccoc2)C(=O)CCl)cc(OC)c1OC | – | – | – | – | – | – | – | –
35 | 8.98 µM | > 20 µM | 1.8 µM | 16.9 µM | – | COc1ccc(N(Cc2cc3ccccc3s2)C(=O)CCl)cc1OC | – | – | – | – | – | – | – | –
36 | 18 µM | > 20 µM | 6.73 µM | 15.4 µM | – | O=C(CCl)N(Cc1cc2ccccc2s1)c1ccccc1 | – | – | – | – | – | – | – | –
37 | 3.61 µM | 11.2 µM | 14.1 µM | > 20 µM | 6.3 µM | COc1cc(N(Cc2ccsc2)C(=O)CCl)cc(OC)c1OC | 15.4 µM | 17.3 | 4.27 | 62.3 µM | 1.74 | Active; Significant Down Regulation Observed | – | –
